In one assay the test system is LNCaP cells. In words: MTT cell viability assay, LNCaP. The format is cell-based, human. The conditions noted are these: for IC50: 72 h, MTT, 10% FBS. As to the method:
Cell Viability Assay. Cell viability was determined using the 3-(4,5-dimethylthiazol-2-yl)-2,5-diphenyltetrazolium bromide (MTT) assay. Cancer cells were seeded at 5000 cells/well and normal cells were seeded at 8000 cells/well in 96-well plates and incubated in 10% FBS-supplemented medium for 24 h. Cells were then treated with individual agents for 72 h. Drug-containing medium was replaced with medium containing MTT (0.5 mg/mL), followed by incubation at 37° C. for 1 h. After removal of medium, the reduced MTT dye in each well was solubilized in 100 μL of DMSO and absorbance at 570 nm was measured.
Compound 30 was evaluated for antiproliferative activity in panels of different human cancer cells lines, including those of prostate, breast and pancreatic cancers. In all experiments, cells were treated with a range of concentrations of Compound 30 in the presence of 10% fetal bovine serum (FBS). Cell viability was then determined after 72 h of treatment using the 3-(4,5-dimethylthiazol-2-yl)-2,5-diphenyltetrazolium bromide (MTT) assay. […] It is noteworthy that despite this high antiproliferative potency, normal human prostate epithelial cells (PrECs) were resistant to the cytotoxic effect of Compound 30 even at 10 μM.
(In general: Tetrazolium dyes change colour on reduction, which living cells bring about.)

Another assay has as its target T1, GLUT4 (Homo sapiens, UniProt P14672).
T1 construct: The full length GLUT1, GLUT4, and GLUT9 ORF cDNA clones were purchased from Addgene; host or cells: LNCaP
T1 sequence (P14672 1-509): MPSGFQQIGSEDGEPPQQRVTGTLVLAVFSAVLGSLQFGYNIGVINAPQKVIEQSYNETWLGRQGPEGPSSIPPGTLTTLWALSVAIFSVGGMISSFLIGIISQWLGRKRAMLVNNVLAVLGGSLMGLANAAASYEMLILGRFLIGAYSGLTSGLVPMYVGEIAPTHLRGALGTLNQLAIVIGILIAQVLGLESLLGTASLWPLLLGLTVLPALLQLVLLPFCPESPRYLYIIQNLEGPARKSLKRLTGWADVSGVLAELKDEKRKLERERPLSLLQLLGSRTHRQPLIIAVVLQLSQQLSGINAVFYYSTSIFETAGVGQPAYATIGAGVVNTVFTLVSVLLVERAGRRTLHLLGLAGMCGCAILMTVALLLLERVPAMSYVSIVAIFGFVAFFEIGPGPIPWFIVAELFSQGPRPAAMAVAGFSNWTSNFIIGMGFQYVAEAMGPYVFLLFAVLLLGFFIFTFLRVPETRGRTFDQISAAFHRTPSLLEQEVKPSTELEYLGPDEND
In words: [3H]2-DG uptake into LNCaP cells overexpressing GLUT4. The format is cell-based. The note with it: for inhibition at 5 µM: LNCaP cells transfected with GLUT4, 30 min. From the text:
(§1) As information regarding the expression pattern of individual GLUT members in LNCaP cells was lacking, quantitative real time polymerase chain reaction (qRT-PCR) was used to assess the mRNA levels of the hypoxia-responsive GLUT1 and GLUT3, and three other representative GLUT members, including the class I GLUT2 and GLUT4 and the class II GLUT9. Among these five members, LNCaP cells expressed GLUT1 and, to a much lesser extent, GLUT9, while the mRNA levels of GLUTs2-4 were negligible (FIG. 3B). To examine the isoform specificity of these inhibitors, LNCaP cells were ectopically transfected with plasmids encoding GLUT1, GLUT3, GLUT4, or GLUT9 vis-à-vis the pCMV control vector so that the increased glucose uptake in GLUT-transfected cells relative to pCMV control cells was indicative of the activity of the ectopically expressed GLUT protein.
(§2) Glucose Uptake Assay. LNCaP cells were seeded in six-well plates (3×10^5 cells/well) for 24 h. Cells were washed twice with Krebs-Ringer phosphate buffer (126 mM NaCl, 2.5 mM KCl, 25 mM NaHCO3, 1.2 mM NaH2PO4, 1.2 mM MgCl2, 2.5 mM CaCl2, pH 7.4) and were then treated with individual agents in Krebs-Ringer phosphate buffer. After 1.5 h, glucose uptake was initiated by adding 1 mL Krebs-Ringer buffer containing […] [^3H]2-DG (PerkinElmer Life Science) and […] non-radioactive 2-DG and was terminated by washing with cold PBS. The cells were lysed in […] lysis buffer (10 mM Tris-HCl pH 8.0, 0.1% SDS) and aliquots were taken for measurement of radioactivity using a scintillation counter (Beckman LS6500).
(§3) Plasmid Construction, Transient Transfection and Immunoblotting. The full length GLUT1, GLUT4, and GLUT9 ORF cDNA clones were purchased from Addgene (Cambridge, Mass.) and GLUT3 ORF cDNA was purchased from Origene Technologies (Rockville, Md.). GLUT1, GLUT3, and GLUT9 were subcloned into the HindIII/SalI sites and GLUT4 was subcloned into the EcoRI/SalI sites of pEGFP-N2 expression vector (Clontech, Palo Alto, Calif.). […]

Another assay deals with T2, GLUT9 (Homo sapiens, UniProt Q9NRM0).
T2 construct: The full length GLUT1, GLUT4, and GLUT9 ORF cDNA clones were purchased from Addgene; EGFP (from the pEGFP-N2 vector); host or cells: LNCaP
T2 sequence (Q9NRM0 1-540): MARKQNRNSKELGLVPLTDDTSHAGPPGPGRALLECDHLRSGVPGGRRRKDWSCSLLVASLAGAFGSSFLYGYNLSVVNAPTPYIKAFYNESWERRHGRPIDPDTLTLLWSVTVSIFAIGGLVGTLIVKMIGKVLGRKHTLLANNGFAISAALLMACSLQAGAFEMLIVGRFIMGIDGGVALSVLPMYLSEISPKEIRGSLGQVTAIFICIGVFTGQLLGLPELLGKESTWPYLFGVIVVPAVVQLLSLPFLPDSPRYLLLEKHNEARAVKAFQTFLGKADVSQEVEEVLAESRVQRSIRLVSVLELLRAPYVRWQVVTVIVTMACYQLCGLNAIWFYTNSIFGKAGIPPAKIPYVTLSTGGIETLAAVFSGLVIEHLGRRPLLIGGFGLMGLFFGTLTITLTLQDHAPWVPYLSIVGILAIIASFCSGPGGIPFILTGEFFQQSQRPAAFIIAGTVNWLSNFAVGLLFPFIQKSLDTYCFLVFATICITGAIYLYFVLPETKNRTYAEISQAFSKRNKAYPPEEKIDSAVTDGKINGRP
In words: [3H]2-DG uptake into LNCaP cells overexpressing GLUT9. The format is cell-based. The note with it: for inhibition at 5 µM: LNCaP cells transfected with GLUT9, 30 min.
Description: as §1, §2, §3

Experimental findings from patent publication US9174951B2, “Glucose transporter inhibitors” (The Ohio State University Research Foundation, priority 2012, dated 2015) are described below.

For the molecule `CCC(CC)CN1C(=O)S/C(=C\c2ccc(O)c(C(F)(F)F)c2)C1=O` [Compound 5], the IC50 in the assay on LNCaP cells (Homo sapiens, LNCaP) is 4.2 µM. The results for the inhibition at 5 µM against GLUT4 and on GLUT9 were 32% and 26%, respectively.

With `CC(CN1C(=O)S/C(=C\c2ccc(O)c(C(F)(F)F)c2)C1=O)(CC(F)(F)F)CC(F)(F)F` [Compound 30, 5-(4-Hydroxy-3-trifluoromethyl-benzylidene)-3-[4,4,4-trifluoro-2-methyl-2-(2,2,2-trifluoro-ethyl)-butyl]-thiazolidine-2,4-dione], the half-maximal inhibitory concentration (IC50) in the assay with LNCaP cells (Homo sapiens, LNCaP) was 1.5 µM; in the assay on LNCaP cells, 1.5 to 1.7 µM; on GLUT4 (LNCaP cells overexpressing GLUT4, read-out: IC50 for GLUT4-mediated [3H]2-DG uptake), at least 5 µM; on GLUT9 (LNCaP cells overexpressing GLUT9, read-out: IC50 for GLUT9-mediated [3H]2-DG uptake), at least 5 µM. The “improvement over compound 1 (IC50, [3H]-2DG uptake and viability of LNCaP cells)” value in the assay with LNCaP cells (relative to compound 1) stood at 40 fold. For the same molecule, the inhibition at 5 µM against GLUT4 was determined as 42%; against GLUT9, 34%.

In general, IC50 refers to the concentration needed to halve the response being measured. As usually defined, the inhibition is the change of the read-out against control, counted positive when it falls. Lower therefore signals little suppression.
